Source: ChEMBL document CHEMBL1126192, “PgH2 analogs as potential antiplatelet derivatives” (J Med Chem, 1992)
pIC50: −log10 of the molar value.

What was measured:
Homo sapiens = species: Homo sapiens; assay: Compound was evaluated for the inhibition of U-46,619 induced aggregation of human platelet rich plasma; type: functional
Thromboxane A2 receptor = target: T1, Thromboxane A2 receptor (Homo sapiens, UniProt P21731); assay: Compound was evaluated for the competitive binding of [3H]U-46619 to washed human platelets at the Thromboxane A2 receptor
T1 sequence (P21731 whole entry): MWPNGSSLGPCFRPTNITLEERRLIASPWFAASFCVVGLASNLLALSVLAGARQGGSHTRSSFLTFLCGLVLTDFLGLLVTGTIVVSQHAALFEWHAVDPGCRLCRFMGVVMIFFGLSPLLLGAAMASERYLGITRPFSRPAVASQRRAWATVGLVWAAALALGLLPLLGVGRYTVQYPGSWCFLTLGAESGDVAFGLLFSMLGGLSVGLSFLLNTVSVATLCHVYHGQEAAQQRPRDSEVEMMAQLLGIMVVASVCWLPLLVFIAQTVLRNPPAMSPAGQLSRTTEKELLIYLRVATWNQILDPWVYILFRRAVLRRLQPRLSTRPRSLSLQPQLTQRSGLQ

| SMILES | pIC50 (Homo sapiens) | pIC50 (Thromboxane A2 receptor) |
| --- | --- | --- |
| O=C(O)CCC/C=C\C[C@H]1C2COC(C2)[C@@H]1CNNC(=O)Nc1ccccc1 (stereo partly drawn) | 5.15 | – |
| CCCCCCNC[C@H]1C2CC(CO2)[C@@H]1C/C=C\CCCC(=O)O (stereo partly drawn) | 4.66 | 4.60 |
